Laboratory results reported in patent publication US20070203066A1, “Compositions and methods for inhibiting cellular proliferation” (priority 2005, published 2007).
Where two headings read alike, the source gives them in different places. Starred links: 1 amine or outer side, 2 acyl side, 3 side chain; linkers in the order of their positions; H or OH if unused. Positions of bridges follow the written chain, without caps; N, C: chain ends. Non-standard residues stand in square brackets, D forms with d. Residues, ends and D or L forms follow the SMILES beside them. Primed or numbered codes have the meaning given here. Chains are numbered I, II in the order given. No end group written: not given here. Ida = iminodiacetic acid linker, its two carboxyls bind the Lys side-chain amines of two peptides, giving a homodimer; Ida(3) = iminodiacetic acid linker, Lys side-chain amines bound to its two carboxyl groups; Ida(4) = iminodiacetic acid linker (dimerization linker bound to lysine side chain); Ida″ = iminodiacetic acid linker bound to the Lys side-chain amine, forming a dimer; X1 = CC(C)(C)OC(=O)NCCC(=O)N(CCC(=O)[*:1])CCN(CCC(=O)[*:2])C(=O)CCNC(=O)OC(C)(C)C; Ahx = NCCCCCC(=O)O

Test system: HUVECs
Format: cell-based
Summary of the method: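 HUVECs seeded at 5,000 cells/well in EBM with 2% FCS, adhered ≥12 hours, then stimulated with bFGF 10 ng/ml or VEGF 5 ng/ml plus varying peptide concentrations. After 48 hours at 37 ° C, 5% CO2, proliferation inhibition read by BrdU incorporation.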

[1] = HUVEC proliferation, bFGF at 10 ng/ml or VEGF at 5 ng/ml, 48 hours, BrdU incorporation, read-out: IC50 on HUVECs

| Compound | IC50 [1] [µM] | IC50 (48 h) [µM] |
| --- | --- | --- |
| 264 (Ac-[dA]RRRRQRVAIIFK-NH2; not fully specified (residue 13); also: homodimer via Ida linker on Lys13 side chains) [compound 264] | < 10 | – |
| KTKRKRAKQRVKIIFVQNM [compound 117] | < 10 | – |
| KTKRKRKKQRVKIAYEEIFVK [compound 14] | < 10 | – |
| 493 (Ac-ARRRNQPVAIKF; not fully specified (residue 11); also: homodimer: Lys11 side chain bound to Ida linker (Boc on Ida N)) [compound 493] | > 30 | – |
| 490 (Ac-PRRRRQSVAIK(Ida″)F; also: homodimer via Ida linker on Lys11 side chain) [compound 490] | 10 to 30 | – |
| KTKRKRKKQRVKIAYEEIFVQAA [compound 45] | 10 to 30 | – |
| 460 (Ac-ARRK(Ida(3))RQAVAIYF; also: homodimer via Ida linker on Lys side chains, linker at 4 via Ida, other end not in the chain) [compound 460] | 10 to 30 | – |
| RKRKKQQRVKIAYEEIFV [compound 76] | > 30 | – |
| 334 (Ac-ARRRRQRVAIYFK; not fully specified (residue 13, C-terminus); also: homodimer via Ida linker on Lys13 side chain, acetate salt) [compound 334] | < 10 | – |
| KTKAKRKKQRVKIIFVQNM [compound 120] | < 10 | – |
| KTKRKRKKQRVKEIFVQNM [compound 32] | > 30 | – |
| 352 (Ac-ARRRRQRVAIYIK-NH2; not fully specified (residue 13); also: homodimer of residues 1-13 via Ida linker on K13 side chain) [compound 352] | < 10 | – |
| 448 (Ac-RRRRRQAAAAAAK(Ida(4)); not fully specified (C-terminus); also: homodimer via Ida linker at K13) [compound 448] | > 30 | – |
| 442 (Ac-RRRRVQAVAIYFK(Ida(4)); not fully specified (C-terminus); also: homodimer via Ida linker at K13) [compound 442] | < 10 | – |
| 28 (Ac-RTRRRRRRQRVRIAYEEIFVRNM[Ahx]K-NH2; not fully specified (residue 25); also: homodimer via Ida linker on Lys25 side chain, Ida amino group carries Boc) [compound 28] | < 10 | – |
| 406 (Ac-MRRRRQAVAIYFK; not fully specified (residue 13, C-terminus); also: homodimer via Ida linker on Lys side chains, linker at 13 via Ida, other end not in the chain) [compound 406] | < 10 | – |
| 479 (Ac-PRRRVQAVAIYFK(Ida(3)); not fully specified (C-terminus); also: homodimer via Ida linker on Lys13 side chain) [compound 479] | 10 to 30 | – |
| 269 (Ac-ARRRRQRVAIEFK-NH2; not fully specified (residue 13); also: homodimer: side chain of Lys13 bound to an Ida linker) [compound 269] | 10 to 30 | – |
| 219 (Ac-RRARRQAVAIIF; also: dimer: Phe C-termini joined via Lys linker) [compound 219] | < 10 | – |
| 271 (Ac-ARRRRQRVAIYF; also: homodimer via Lys linker, Phe C-termini bound to the two Lys amino groups) [compound 271] | < 10 | – |
| 238 (Ac-RHRRRQHVRIIF; also: dimer via C-terminal Phe to Lys linker) [compound 238] | < 10 | – |
| 309 (Ac-RRRRRQAK(Ida)RIIFV; also: homodimer via Ida linker on Lys8 side chain) [compound 309] | < 10 | – |
| 306 (Ac-RRRRRQAVRIK(Ida)FV; also: homodimer via Ida linker on Lys11 side chain) [compound 306] | < 10 | – |
| 285 (Ac-RRRRHQAVHIYFK-NH2; not fully specified (residue 13); also: homodimer via Ida linker on Lys13 side chain) [compound 285] | < 10 | – |

| Compound | IC50 [1] [µM] | IC50 (48 h) [µM] |
| --- | --- | --- |
| 397 (Ac-ARRRRQAVYIYFK; not fully specified (residue 13, C-terminus); also: homodimer of residues 1-13 via Ida linker at Lys13 side chain) [compound 397] | < 10 | – |
| KNKSKGVVKIQRRKAPFVVYESIN [compound 7] | > 30 | – |
| 129 (TKRKRKKQRVKI[Ahx][Ahx]IF; also: dimer: C-terminus of Phe16 of each chain bound to one amino group of a Lysine linker) [compound 129] | < 10 | – |
| 338 (Ac-RHRRRQHVHIYFK(Ida(3))-NH2; also: homodimer via Lys13 side chain, Ida linker (Ida amino group Boc)) [compound 338] | < 10 | – |
| KTKKQRVKIAYEEIFVQNM [compound 57] | > 30 | – |
| CC[C@H](C)[C@H](NC(=O)[C@H](C)NC(=O)[C@@H](NC(=O)[C@H](CCCNC(=N)N)NC(=O)[C@H](CCC(N)=O)NC(=O)[C@H](CCCNC(=N)N)NC(=O)[C@H](CCCNC(=N)N)NC(=O)[C@H](CCCNC(=N)N)NC(=O)[C@H](CCCNC(=N)N)NC(=O)[C@H](C)NC(C)=O)C(C)C)C(=O)N[C@@H](Cc1ccc(O)cc1)C(=O)N[C@@H](Cc1ccccc1)C(=O)N[C@@H](CCCCNC(=O)CCN(CCN(CCC(=O)NCCCC[C@H](NC(=O)[C@H](Cc1ccccc1)NC(=O)[C@H](Cc1ccc(O)cc1)NC(=O)[C@@H](NC(=O)[C@H](C)NC(=O)[C@@H](NC(=O)[C@H](CCCNC(=N)N)NC(=O)[C@H](CCC(N)=O)NC(=O)[C@H](CCCNC(=N)N)NC(=O)[C@H](CCCNC(=N)N)NC(=O)[C@H](CCCNC(=N)N)NC(=O)[C@H](CCCNC(=N)N)NC(=O)[C@H](C)NC(C)=O)C(C)C)[C@@H](C)CC)C(N)=O)C(=O)CCNC(=O)OC(C)(C)C)C(=O)CCNC(=O)OC(C)(C)C)C(N)=O [Peptide 331] (I: Ac-ARRRRQRVAIYFK-NH2 / II: Ac-ARRRRQRVAIYFK-NH2; linker I:13-II:13 via X1; C-terminus assumed) | – | < 10 |
| KTKRKRKKQAYEEIFVQNM [compound 29] | > 30 | – |
| 310 (Ac-RRRRRQK(Ida)VRIIFV; also: homodimer via Ida linker on Lys7 side chain) [compound 310] | < 10 | – |
| RKRKKQRVKIAYEEIFVQNM [compound 21] | > 30 | – |
| 398 (Ac-ARRRRQAVLIYFK; not fully specified (residue 13, C-terminus); also: homodimer of residues 1-13 via Ida linker at Lys13 side chain) [compound 398] | < 10 | – |
| 277 (XRRRRQRVHIYFK; not fully specified; Xaa = Acylated Histidine; The side chain of Lysine at position 13 is covalently bound to an Ida linker forming a homodimer of residues 1 through 13.) [compound 277] | < 10 | – |
| 339 (Ac-RRHHRQHVRIYFK(Ida(3))-NH2; also: homodimer via Lys13 side chain, Ida linker (Ida amino group Boc)) [compound 339] | < 10 | – |
| KTKRKRVKIAYEEIFVQNM [compound 52] | > 30 | – |
| 231 (XRRHRQRVRIIF; Xaa = Acylated Histidine; Dimeric peptide wherein the C terminus of Phe in position 12 of one peptide chain is covalently bound to one of the amino groups of a Lysine linker and Phe of the remaining peptide chain is covalently bound to the other amino group of the Lysine linker.) [compound 231] | < 10 | – |
| CC[C@H](C)[C@H](NC(=O)[C@H](C)NC(=O)[C@@H](NC(=O)[C@H](C)NC(=O)[C@H](CCC(N)=O)NC(=O)[C@H](CCCNC(=N)N)NC(=O)[C@H](CCCNC(=N)N)NC(=O)[C@H](CCCNC(=N)N)NC(=O)[C@H](C)NC(=O)[C@H](CCCNC(=N)N)NC(C)=O)C(C)C)C(=O)N[C@@H](CC(N)=O)C(=O)N[C@@H](Cc1ccccc1)C(=O)N[C@@H](CCCCNC(=O)CN(CC(=O)NCCCC[C@H](NC(=O)[C@H](Cc1ccccc1)NC(=O)[C@H](CC(N)=O)NC(=O)[C@@H](NC(=O)[C@H](C)NC(=O)[C@@H](NC(=O)[C@H](C)NC(=O)[C@H](CCC(N)=O)NC(=O)[C@H](CCCNC(=N)N)NC(=O)[C@H](CCCNC(=N)N)NC(=O)[C@H](CCCNC(=N)N)NC(=O)[C@H](C)NC(=O)[C@H](CCCNC(=N)N)NC(C)=O)C(C)C)[C@@H](C)CC)C(N)=O)C(=O)CCNC(=O)OC(C)(C)C)C(N)=O [Peptide 272] | – | < 10 |
| KTKRKRKKQRVKIAYEEAAVQNM [compound 47] | > 30 | – |
| KRKRKKQRVKIIFV [compound 87] | < 10 | – |
| 207 (Ac-RRRARQAVRIIF; also: dimer: Phe C-termini joined via Lys linker) [compound 207] | < 10 | – |
| 418 (Ac-ARRRRQPVAIYFK; not fully specified (residue 13, C-terminus); also: homodimer of residues 1-13 via Ida linker on K13 side chain) [compound 418] | < 10 | – |
| KTKRKRKKQRVKAIFVQNM [compound 111] | 10 to 30 | – |
| KRKKQRVKIIF [compound 83] | > 30 | – |
| 282 (Ac-RRRRAQHVAIYFK-NH2; not fully specified (residue 13); also: homodimer: Lys13 side chain bound to Ida linker) [compound 282] | < 10 | – |
| 495 (Ac-PRERRQAVAIYFK(Ida″); not fully specified (C-terminus); also: homodimer via Ida linker on Lys13 side chain) [compound 495] | > 30 | – |
